Ends that are not written are not given here.
What was measured:
[1] = Electronic tongue analysis (Taste-Sensing System SA 402B); set-up: unit not given here; conditions: reference solution 30 mM KCl + 0.3 mM tartaric acid as baseline, first measurement excluded; for Umami: sensor AAE; for Umami / Bitter / Sweet: detection threshold 0, room temperature; for Umami / Bitter / Sour / Salty: four replicates; for Sour: detection threshold -13, room temperature; for Salty: detection threshold -6, room temperature; for Sweet: measured five times
Procedure, shortened: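 Room-temperature electronic-tongue readings with five taste probes, calibrated against a reference of 30 mM KCl and 0.3 mM tartaric acid. Samples at 0.1 mg/mL and 1.0 mg/mL were measured four times, sweetness five times, and the first run was dropped. Detection cut-offs were sour −13, salty −6, others 0.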

[2] = system: human bronchial epithelial cells (BEAS-2B)
[3] = system: human embryonic kidney cells (HEK293T)
[4] = system: human pancreatic ductal epithelial cells (HPNE)
[5] = system: human umbilical vein endothelial cells (HUVEC)

Substance	Umami ([1]; peptide 0.1 mg/mL)	Umami ([1]; peptide 1 mg/mL)	Bitter ([1]; sensor C00, peptide 0.1 mg/mL)	Bitter ([1]; sensor C00, peptide 1 mg/mL)	Sour ([1]; sensor CA0, peptide 0.1 mg/mL)	Sour ([1]; sensor CA0, peptide 1 mg/mL)	Salty ([1]; sensor CT0, peptide 0.1 mg/mL)	Salty ([1]; sensor CT0, peptide 1 mg/mL)	Sweet ([1]; sensor GL1, peptide 0.1 mg/mL)	Sweet ([1]; sensor GL1, peptide 1 mg/mL)	Average cell viability, BEAS-2B [2]	Cell viability, BEAS-2B, Data1 [2]	Cell viability, BEAS-2B, Data2 [2]	Cell viability, BEAS-2B, Data3 [2]	Average cell viability, HEK293T [3]	Cell viability, HEK293T, Data1 [3]	Cell viability, HEK293T, Data2 [3]	Cell viability, HEK293T, Data3 [3]	Average cell viability, HPNE [4]	Cell viability, HPNE, Data1 [4]	further results
EQGEQN [TaPep15]	3.17	-3.63	6.27	4.11	-7.15	8.97	-23.91	2.97	9.72	-3.92	103.09	105.68	95.51	108.08	92.65	98.80	86.59	92.56	101.30	84.06	Cell viability, HPNE, Data2 [4]: 112.61; Cell viability, HPNE, Data3 [4]: 107.22; Average cell viability, HUVEC [5]: 100.56; Cell viability, HUVEC, Data1 [5]: 103.30; Cell viability, HUVEC, Data2 [5]: 104.26; Cell viability, HUVEC, Data3 [5]: 94.12
EQPLQA [TaPep21]	0.99	-5.14	7.83	3.66	-1.59	12.04	-19.46	7.62	5.53	-10.15	98.84	92.62	108.57	95.31	97.76	94.35	95.58	103.34	98.70	92.25	Cell viability, HPNE, Data2 [4]: 87.35; Cell viability, HPNE, Data3 [4]: 116.51; Average cell viability, HUVEC [5]: 102.16; Cell viability, HUVEC, Data1 [5]: 96.59; Cell viability, HUVEC, Data2 [5]: 98.43; Cell viability, HUVEC, Data3 [5]: 111.44
ESKDQ [TaPep55]	1.27	-4.53	7.76	2.75	-2.34	11.12	-19.80	11.30	5.21	-7.81	109.14	112.96	98.40	116.05	98.14	94.73	101.07	98.61	94.61	105.92	Cell viability, HPNE, Data2 [4]: 82.36; Cell viability, HPNE, Data3 [4]: 95.54; Average cell viability, HUVEC [5]: 102.82; Cell viability, HUVEC, Data1 [5]: 107.29; Cell viability, HUVEC, Data2 [5]: 96.11; Cell viability, HUVEC, Data3 [5]: 105.06
EVGMQE [TaPep56]	2.28	-4.04	7.18	3.33	-4.96	9.59	-21.19	6.57	7.84	-7.49	108.94	97.91	109.67	119.24	101.26	104.86	101.55	97.38	104.53	109.42	Cell viability, HPNE, Data2 [4]: 91.95; Cell viability, HPNE, Data3 [4]: 112.21; Average cell viability, HUVEC [5]: 106.36; Cell viability, HUVEC, Data1 [5]: 96.04; Cell viability, HUVEC, Data2 [5]: 108.89; Cell viability, HUVEC, Data3 [5]: 114.16
FEGDQDA [TaPep18]	1.84	-5.33	6.92	3.77	-3.88	13.35	-22.88	7.99	5.97	-5.91	104.49	109.67	103.49	100.30	103.66	104.57	105.99	100.41	102.53	116.21	Cell viability, HPNE, Data2 [4]: 89.05; Cell viability, HPNE, Data3 [4]: 102.33; Average cell viability, HUVEC [5]: 104.36; Cell viability, HUVEC, Data1 [5]: 97.71; Cell viability, HUVEC, Data2 [5]: 114.64; Cell viability, HUVEC, Data3 [5]: 100.75
